Assay results as given in paper PMC8770593 (Nature Communications, 2022).

What was measured:
[1] = target: T1, α1BAR-α2C(L^45.52) chimera (V197^45.52→L) (Homo sapiens, UniProt P35368, V197L); assay: HTRF ligand-binding assay on whole transfected HEK293T/17 cells (QAPB saturation; competition with QAPB tracer)
T1 sequence (P35368 35-520 V197L): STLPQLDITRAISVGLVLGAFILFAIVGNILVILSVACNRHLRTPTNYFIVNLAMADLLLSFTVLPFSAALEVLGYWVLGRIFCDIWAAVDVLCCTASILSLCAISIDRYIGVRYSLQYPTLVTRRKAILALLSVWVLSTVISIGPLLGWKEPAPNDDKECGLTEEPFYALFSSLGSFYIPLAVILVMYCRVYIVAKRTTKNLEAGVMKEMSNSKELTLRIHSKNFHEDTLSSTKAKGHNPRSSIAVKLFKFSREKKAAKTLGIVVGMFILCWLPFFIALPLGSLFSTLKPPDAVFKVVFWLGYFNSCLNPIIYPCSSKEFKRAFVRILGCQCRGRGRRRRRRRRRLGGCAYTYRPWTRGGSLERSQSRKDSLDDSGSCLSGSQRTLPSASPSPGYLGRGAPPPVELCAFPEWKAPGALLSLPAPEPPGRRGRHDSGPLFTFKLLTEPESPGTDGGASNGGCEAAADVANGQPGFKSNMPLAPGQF

[2] = target: T2, wild-type α2CAR (Homo sapiens, UniProt P18825); assay: as above; details: pKi (competition binding), competition with 50 nM QAPB tracer, whole cells, mean
T2 sequence (P18825 37-462 limits assumed): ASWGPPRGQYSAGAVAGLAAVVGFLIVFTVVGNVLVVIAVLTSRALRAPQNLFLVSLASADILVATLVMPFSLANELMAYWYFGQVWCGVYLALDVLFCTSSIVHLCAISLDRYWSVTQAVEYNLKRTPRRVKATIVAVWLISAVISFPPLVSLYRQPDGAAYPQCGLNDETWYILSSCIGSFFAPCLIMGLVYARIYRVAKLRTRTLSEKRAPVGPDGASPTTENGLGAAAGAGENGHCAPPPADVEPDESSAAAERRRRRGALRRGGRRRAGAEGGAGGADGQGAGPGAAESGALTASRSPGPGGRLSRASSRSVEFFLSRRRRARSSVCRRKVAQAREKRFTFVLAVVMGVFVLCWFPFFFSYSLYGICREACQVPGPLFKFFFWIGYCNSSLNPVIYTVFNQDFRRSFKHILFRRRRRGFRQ

COc1cc2nc(N3CCN(C(=O)c4ccco4)[C@H]4CCCC[C@H]43)nc(N)c2cc1OC (relative stereo) [cyclazosin, [4-(4-amino-6,7-dimethoxyquinazolin-2-yl)-cis-octahydroquinoxalin-1-yl] furan-2-ylmethanone]
effect of the substitution on affinity ([1]; V197^45.52→L vs wild-type α1BAR): negligible
Ki ([1]; pKi (competition binding), competition with 2 nM QAPB tracer, whole cells, mean): 1.1 nM
Ki [2]: 339 nM
